Oligonucleotides are given in HELM: sugar(base)linkage, 5' to 3'; d 2'-deoxyribose, r ribose, m 2'-O-methylribose, p phosphate. ss, as = sense and antisense strand
molecular target: SOST; test: reporter assay of Huesken 2005; conditions: siRNA
Note: test concentration or dose not given here.

In order of falling normalised inhibition (eCFP-eYFP dual reporter):
1. RNA1{r(G)p.r(C)p.r(G)p.r(U)p.r(U)p.r(C)p.r(A)p.r(A)p.r(G)p.r(A)p.r(A)p.r(U)p.r(G)p.r(A)p.r(U)p.r(G)p.r(C)p.r(C)p.r(A)p.d(T)p.d(T)}|RNA2{r(U)p.r(G)p.r(G)p.r(C)p.r(A)p.r(U)p.r(C)p.r(A)p.r(U)p.r(U)p.r(C)p.r(U)p.r(U)p.r(G)p.r(A)p.r(A)p.r(C)p.r(G)p.r(C)p.d(C)p.d(T)}$$$RNA1{StrandType:ss}|RNA2{StrandType:as}$  93.4%
2. RNA1{r(G)p.r(C)p.r(C)p.r(A)p.r(G)p.r(G)p.r(G)p.r(G)p.r(U)p.r(G)p.r(G)p.r(C)p.r(A)p.r(G)p.r(G)p.r(C)p.r(G)p.r(U)p.r(U)p.d(T)p.d(T)}|RNA2{r(A)p.r(A)p.r(C)p.r(G)p.r(C)p.r(C)p.r(U)p.r(G)p.r(C)p.r(C)p.r(A)p.r(C)p.r(C)p.r(C)p.r(C)p.r(U)p.r(G)p.r(G)p.r(C)p.d(C)p.d(C)}$$$RNA1{StrandType:ss}|RNA2{StrandType:as}$  77.7%
3. RNA1{r(G)p.r(A)p.r(C)p.r(G)p.r(U)p.r(G)p.r(U)p.r(C)p.r(C)p.r(G)p.r(A)p.r(G)p.r(U)p.r(A)p.r(C)p.r(A)p.r(G)p.r(C)p.r(U)p.d(T)p.d(T)}|RNA2{r(A)p.r(G)p.r(C)p.r(U)p.r(G)p.r(U)p.r(A)p.r(C)p.r(U)p.r(C)p.r(G)p.r(G)p.r(A)p.r(C)p.r(A)p.r(C)p.r(G)p.r(U)p.r(C)p.d(T)p.d(T)}$$$RNA1{StrandType:ss}|RNA2{StrandType:as}$  75.8%
4. RNA1{r(G)p.r(C)p.r(U)p.r(G)p.r(C)p.r(A)p.r(C)p.r(U)p.r(U)p.r(C)p.r(A)p.r(C)p.r(C)p.r(C)p.r(G)p.r(C)p.r(U)p.r(A)p.r(C)p.d(T)p.d(T)}|RNA2{r(G)p.r(U)p.r(A)p.r(G)p.r(C)p.r(G)p.r(G)p.r(G)p.r(U)p.r(G)p.r(A)p.r(A)p.r(G)p.r(U)p.r(G)p.r(C)p.r(A)p.r(G)p.r(C)p.d(T)p.d(C)}$$$RNA1{StrandType:ss}|RNA2{StrandType:as}$  75.4%
5. RNA1{r(G)p.r(A)p.r(G)p.r(G)p.r(G)p.r(C)p.r(C)p.r(A)p.r(G)p.r(G)p.r(G)p.r(G)p.r(U)p.r(G)p.r(G)p.r(C)p.r(A)p.r(G)p.r(G)p.d(T)p.d(T)}|RNA2{r(C)p.r(C)p.r(U)p.r(G)p.r(C)p.r(C)p.r(A)p.r(C)p.r(C)p.r(C)p.r(C)p.r(U)p.r(G)p.r(G)p.r(C)p.r(C)p.r(C)p.r(U)p.r(C)p.d(C)p.d(A)}$$$RNA1{StrandType:ss}|RNA2{StrandType:as}$  71.1%
6. RNA1{r(G)p.r(C)p.r(G)p.r(A)p.r(C)p.r(C)p.r(U)p.r(A)p.r(G)p.r(U)p.r(G)p.r(G)p.r(G)p.r(C)p.r(C)p.r(C)p.r(G)p.r(A)p.r(C)p.d(T)p.d(T)}|RNA2{r(G)p.r(U)p.r(C)p.r(G)p.r(G)p.r(G)p.r(C)p.r(C)p.r(C)p.r(A)p.r(C)p.r(U)p.r(A)p.r(G)p.r(G)p.r(U)p.r(C)p.r(G)p.r(C)p.d(C)p.d(A)}$$$RNA1{StrandType:ss}|RNA2{StrandType:as}$  66%
7. RNA1{r(G)p.r(C)p.r(C)p.r(C)p.r(A)p.r(A)p.r(C)p.r(G)p.r(C)p.r(C)p.r(A)p.r(U)p.r(C)p.r(G)p.r(G)p.r(C)p.r(C)p.r(G)p.r(C)p.d(T)p.d(T)}|RNA2{r(G)p.r(C)p.r(G)p.r(G)p.r(C)p.r(C)p.r(G)p.r(A)p.r(U)p.r(G)p.r(G)p.r(C)p.r(G)p.r(U)p.r(U)p.r(G)p.r(G)p.r(G)p.r(C)p.d(A)p.d(G)}$$$RNA1{StrandType:ss}|RNA2{StrandType:as}$  64.3%
8. RNA1{r(C)p.r(U)p.r(C)p.r(A)p.r(A)p.r(G)p.r(G)p.r(A)p.r(C)p.r(U)p.r(U)p.r(C)p.r(G)p.r(G)p.r(G)p.r(A)p.r(C)p.r(C)p.r(G)p.d(T)p.d(T)}|RNA2{r(C)p.r(G)p.r(G)p.r(U)p.r(C)p.r(C)p.r(C)p.r(G)p.r(A)p.r(A)p.r(G)p.r(U)p.r(C)p.r(C)p.r(U)p.r(U)p.r(G)p.r(A)p.r(G)p.d(C)p.d(T)}$$$RNA1{StrandType:ss}|RNA2{StrandType:as}$  62.6%
9. RNA1{r(C)p.r(G)p.r(U)p.r(G)p.r(U)p.r(A)p.r(G)p.r(U)p.r(G)p.r(G)p.r(A)p.r(G)p.r(G)p.r(G)p.r(C)p.r(C)p.r(A)p.r(G)p.r(G)p.d(T)p.d(T)}|RNA2{r(C)p.r(C)p.r(U)p.r(G)p.r(G)p.r(C)p.r(C)p.r(C)p.r(U)p.r(C)p.r(C)p.r(A)p.r(C)p.r(U)p.r(A)p.r(C)p.r(A)p.r(C)p.r(G)p.d(G)p.d(A)}$$$RNA1{StrandType:ss}|RNA2{StrandType:as}$  60.7%
10. RNA1{r(C)p.r(U)p.r(U)p.r(C)p.r(A)p.r(C)p.r(C)p.r(C)p.r(G)p.r(C)p.r(U)p.r(A)p.r(C)p.r(G)p.r(U)p.r(G)p.r(A)p.r(C)p.r(C)p.d(T)p.d(T)}|RNA2{r(G)p.r(G)p.r(U)p.r(C)p.r(A)p.r(C)p.r(G)p.r(U)p.r(A)p.r(G)p.r(C)p.r(G)p.r(G)p.r(G)p.r(U)p.r(G)p.r(A)p.r(A)p.r(G)p.d(T)p.d(G)}$$$RNA1{StrandType:ss}|RNA2{StrandType:as}$  59.4%
11. RNA1{r(G)p.r(C)p.r(C)p.r(G)p.r(C)p.r(G)p.r(C)p.r(G)p.r(C)p.r(G)p.r(C)p.r(G)p.r(C)p.r(A)p.r(A)p.r(G)p.r(G)p.r(U)p.r(G)p.d(T)p.d(T)}|RNA2{r(C)p.r(A)p.r(C)p.r(C)p.r(U)p.r(U)p.r(G)p.r(C)p.r(G)p.r(C)p.r(G)p.r(C)p.r(G)p.r(C)p.r(G)p.r(C)p.r(G)p.r(G)p.r(C)p.d(G)p.d(C)}$$$RNA1{StrandType:ss}|RNA2{StrandType:as}$  57.1%
12. RNA1{r(C)p.r(G)p.r(U)p.r(G)p.r(U)p.r(C)p.r(C)p.r(G)p.r(A)p.r(G)p.r(U)p.r(A)p.r(C)p.r(A)p.r(G)p.r(C)p.r(U)p.r(G)p.r(C)p.d(T)p.d(T)}|RNA2{r(G)p.r(C)p.r(A)p.r(G)p.r(C)p.r(U)p.r(G)p.r(U)p.r(A)p.r(C)p.r(U)p.r(C)p.r(G)p.r(G)p.r(A)p.r(C)p.r(A)p.r(C)p.r(G)p.d(T)p.d(C)}$$$RNA1{StrandType:ss}|RNA2{StrandType:as}$  54.8%
13. RNA1{r(G)p.r(C)p.r(U)p.r(C)p.r(C)p.r(G)p.r(G)p.r(C)p.r(C)p.r(A)p.r(G)p.r(U)p.r(G)p.r(C)p.r(G)p.r(G)p.r(C)p.r(C)p.r(C)p.d(T)p.d(T)}|RNA2{r(G)p.r(G)p.r(G)p.r(C)p.r(C)p.r(G)p.r(C)p.r(A)p.r(C)p.r(U)p.r(G)p.r(G)p.r(C)p.r(C)p.r(G)p.r(G)p.r(A)p.r(G)p.r(C)p.d(A)p.d(C)}$$$RNA1{StrandType:ss}|RNA2{StrandType:as}$  53%
14. RNA1{r(G)p.r(A)p.r(A)p.r(C)p.r(G)p.r(G)p.r(A)p.r(G)p.r(G)p.r(G)p.r(C)p.r(G)p.r(G)p.r(C)p.r(C)p.r(U)p.r(C)p.r(C)p.r(C)p.d(T)p.d(T)}|RNA2{r(G)p.r(G)p.r(G)p.r(A)p.r(G)p.r(G)p.r(C)p.r(C)p.r(G)p.r(C)p.r(C)p.r(C)p.r(U)p.r(C)p.r(C)p.r(G)p.r(U)p.r(U)p.r(C)p.d(T)p.d(C)}$$$RNA1{StrandType:ss}|RNA2{StrandType:as}$  52.6%
15. RNA1{r(C)p.r(U)p.r(G)p.r(G)p.r(U)p.r(G)p.r(G)p.r(C)p.r(C)p.r(U)p.r(C)p.r(G)p.r(U)p.r(G)p.r(C)p.r(A)p.r(A)p.r(G)p.r(U)p.d(T)p.d(T)}|RNA2{r(A)p.r(C)p.r(U)p.r(U)p.r(G)p.r(C)p.r(A)p.r(C)p.r(G)p.r(A)p.r(G)p.r(G)p.r(C)p.r(C)p.r(A)p.r(C)p.r(C)p.r(A)p.r(G)p.d(G)p.d(C)}$$$RNA1{StrandType:ss}|RNA2{StrandType:as}$  52.5%
16. RNA1{r(C)p.r(G)p.r(G)p.r(U)p.r(C)p.r(A)p.r(C)p.r(C)p.r(G)p.r(A)p.r(G)p.r(C)p.r(U)p.r(G)p.r(G)p.r(U)p.r(G)p.r(U)p.r(G)p.d(T)p.d(T)}|RNA2{r(C)p.r(A)p.r(C)p.r(A)p.r(C)p.r(C)p.r(A)p.r(G)p.r(C)p.r(U)p.r(C)p.r(G)p.r(G)p.r(U)p.r(G)p.r(A)p.r(C)p.r(C)p.r(G)p.d(G)p.d(C)}$$$RNA1{StrandType:ss}|RNA2{StrandType:as}$  52.2%
17. RNA1{r(G)p.r(C)p.r(U)p.r(A)p.r(C)p.r(C)p.r(G)p.r(C)p.r(G)p.r(C)p.r(G)p.r(C)p.r(A)p.r(G)p.r(C)p.r(G)p.r(C)p.r(G)p.r(U)p.d(T)p.d(T)}|RNA2{r(A)p.r(C)p.r(G)p.r(C)p.r(G)p.r(C)p.r(U)p.r(G)p.r(C)p.r(G)p.r(C)p.r(G)p.r(C)p.r(G)p.r(G)p.r(U)p.r(A)p.r(G)p.r(C)p.d(G)p.d(G)}$$$RNA1{StrandType:ss}|RNA2{StrandType:as}$  51.8%
18. RNA1{r(C)p.r(U)p.r(A)p.r(C)p.r(C)p.r(G)p.r(C)p.r(G)p.r(C)p.r(G)p.r(C)p.r(A)p.r(G)p.r(C)p.r(G)p.r(C)p.r(G)p.r(U)p.r(G)p.d(T)p.d(T)}|RNA2{r(C)p.r(A)p.r(C)p.r(G)p.r(C)p.r(G)p.r(C)p.r(U)p.r(G)p.r(C)p.r(G)p.r(C)p.r(G)p.r(C)p.r(G)p.r(G)p.r(U)p.r(A)p.r(G)p.d(C)p.d(G)}$$$RNA1{StrandType:ss}|RNA2{StrandType:as}$  50.5%
19. RNA1{r(C)p.r(U)p.r(C)p.r(G)p.r(G)p.r(A)p.r(G)p.r(A)p.r(G)p.r(U)p.r(A)p.r(C)p.r(C)p.r(C)p.r(C)p.r(G)p.r(A)p.r(G)p.r(C)p.d(T)p.d(T)}|RNA2{r(G)p.r(C)p.r(U)p.r(C)p.r(G)p.r(G)p.r(G)p.r(G)p.r(U)p.r(A)p.r(C)p.r(U)p.r(C)p.r(U)p.r(C)p.r(C)p.r(G)p.r(A)p.r(G)p.d(C)p.d(T)}$$$RNA1{StrandType:ss}|RNA2{StrandType:as}$  44.4%
20. RNA1{r(G)p.r(C)p.r(G)p.r(C)p.r(G)p.r(C)p.r(A)p.r(A)p.r(G)p.r(G)p.r(U)p.r(G)p.r(C)p.r(G)p.r(C)p.r(C)p.r(U)p.r(G)p.r(G)p.d(T)p.d(T)}|RNA2{r(C)p.r(C)p.r(A)p.r(G)p.r(G)p.r(C)p.r(G)p.r(C)p.r(A)p.r(C)p.r(C)p.r(U)p.r(U)p.r(G)p.r(C)p.r(G)p.r(C)p.r(G)p.r(C)p.d(G)p.d(C)}$$$RNA1{StrandType:ss}|RNA2{StrandType:as}$  41.3%

— the OligoGym collection
